Laboratory results taken from US20090163409A1, “Trappin-2 (elafin) inhibits HIV” (priority 2005, published 2009).
Entries after “also recorded” stand apart in the source; their conditions may differ. Where no end group is shown, it is not given here.

Key:
[1] = tested on: HIV HxBc2; assay: HIV HxBc2 viral replication in MT4 cells (RT activity in supernatants, p24 western blot); format: cell-based
Protocol: FIG. 4. Trappin-2 inhibits HIV viral replication in an in vitro system. A) We tested HIV HxBc2 in an established viral replication model system and measured the effect of pretreatment of recombinant human trappin-2 (6.0 kDa form) on cells in viral infection 15,19. Briefly, 1 or 5 ug/mL of trappin-2 was incubated with MT4 cells for 1 hour. Then equivalent amounts of virus (0.02 cpm/cell) were added to the cells in the presence of trappin-2 for 2 hours. Infected cells were washed and cultured in the absence of trappin-2. As a control, 10 uM of AZT was used. Viral production in supernatants was evaluated by RT activity after 6 days of culture. […] B) The experiment was repeated with an additional assay of trappin-2 preincubated with cells and subsequently supplemented into the culture media (lane 6). Supernatants were harvested at Day 6 of infection and assayed for both RT activity and western blot analysis for HIV p24. Error bars are mean±SEM.
(§1) Finally, the ability of trappin-2 (6.0 kDa form) to inhibit HIV infection in an established HIV infection model was examined. A highly infectable T cell line (MT4) was used to assay the effect of trappin-2 inhibition on HIV HxBc2 replication 13,14,15. HIV inhibition experiments were performed by preincubating trappin-2 with either the virus, or target cells. […] In our in vitro system a 5 fold increase in trappin-2 (FIG. 4b) had significant effects on HIV replication. Trappin-2 has previously been reported to have immunomodulatory effects and thus its influence on immune regulation is of interest. To determine if the HIV inhibitory effects of trappin-2 are the result of induction of anti-viral cytokines such as IFN-γ, cytokine responses of MT4 cells after treatment with trappin-2 were measured.

[2] = tested on: MT4 cells; assay: Cytokine responses of MT4 cells after treatment with trappin-2; format: cell-based
Protocol: as §1

[3] = tested on: macrophage tropic (R5) HIV; conditions: macrophage tropic (R5) viruses; cited from earlier work
[4] = tested on: T cell tropic (X4) HIV; conditions: T cell tropic (X4) viruses; cited from earlier work

Question: With “trappin-2: recombinant human trappin-2 (6.0 kDa form), serine protease inhibiter of the Trappin family, also known as elafin/SKALP (AQEPVKGPVSTKPGSCPIILIRCAMLNPPNRCLKDTDCPGIKKCCEGSCGMACFVPQ; not fully specified (bridges); also: four disulfide bridges, pairing not given here; UniProt P19957 61-117, looked up)” as the molecule, how does the “HIV viral replication (RT activity in supernatants)” value ([1]; MT4 cells pretreated 1 hour with 1 or 5 ug/mL trappin-2 (physiological concentrations), virus 2 hours, washed, cultured without trappin-2, day 6) read?
Answer: greatly reduced HIV viral replication in a dose dependent manner; also recorded: significantly reduced virus replication

Question: And the “inhibition of HIV replication” value ([1]; simultaneous addition of trappin-2 and virus to target cells, compared with 1-hour pre-exposure)?
Answer: significantly less inhibition

Question: What about the “HIV viral replication (RT activity, p24 western blot)” value ([1]; trappin-2 preincubated 1 hour with cells and added back into the culture media, day 6) of the same molecule?
Answer: even more dramatic decrease in viral replication

Question: What about the “induction of cytokines (anti-viral cytokines such as IFN-γ)” value [2] of the same molecule?
Answer: No induction of cytokines was detected

B1: SLP-I: protease inhibitor and member of the antileukoprotease superfamily, first isolated from human saliva (protein, UniProt P03973 26-132, looked up)
Antileukoproteinase: SGKSFKAGVCPPKKSAQCLRYKKPECQSDWQCPGKKRCCPDTCGIKCLDPVDTPNPTRRKPGKCPVTYGQCLMLNPPNFCEMDGQCKRDLKCCMGMCGKSCVSPVKA
Question: What does the source list for B1?
Answer: inhibition of HIV infection of macrophage cells [3]: inhibit HIV infection of macrophage cells; prevention of infection of T cells [4]: does not prevent infection of T cells
